In this assay the test system is HCT116. The following applies: 72 h. A digest of the protocol:
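Luminescence was read with CellTiter-Glo in HCT116 cells seeded at 250 per well in 1536-well plates. Signals were scaled between vehicle at 0% and positive control at -100%, then pattern-corrected. IC50 and maximal efficacy were obtained by fitting a four-parameter Hill equation.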

This note sets out measurements from the supplement of paper PMC12137928.

Structures are written as SMILES. Where a name gives a salt, the structure may show the parent alone.

Take `O=P(O)(O)C(O)(Cc1cnc2ccccn12)P(=O)(O)O` [Minodronic acid]: the IC50 cell viability by setting is: (ICRF193 0 nM) above 45.8 µM; (ICRF193 200 nM) above 45.8 µM.

In turn, `Nc1cc(N2CCCCC2)nc(N)[n+]1[O-]` [Minoxidil] yielded an IC50 cell viability (ICRF193 0 nM) above 45.8 µM and an IC50 cell viability (ICRF193 200 nM) above 45.8 µM.

For the compound `Nc1nc(CC(=O)Nc2ccc(CCNC[C@H](O)c3ccccc3)cc2)cs1` [Mirabegron], the IC50 cell viability by setting is: (ICRF193 0 nM) above 45.8 µM; (ICRF193 200 nM) above 45.8 µM.

`CN1CCN2c3ncccc3Cc3ccccc3C2C1` (stereo unspecified) [Mirtazapine]: the IC50 cell viability by setting is: (ICRF193 0 nM) above 45.8 µM; (ICRF193 200 nM) above 45.8 µM.

Consider `CO[C@@]12[C@H](COC(N)=O)C3=C(C(=O)C(C)=C(N)C3=O)N1C[C@@H]1N[C@@H]12` [Mitomycin C], for which the IC50 cell viability is, setting by setting: (ICRF193 0 nM) above 45.8 µM; (ICRF193 200 nM) above 45.8 µM.

On to `Clc1ccc(C(c2ccccc2Cl)C(Cl)Cl)cc1` (stereo unspecified) [Mitotane], for which the IC50 cell viability runs as follows: (ICRF193 0 nM) above 45.8 µM; (ICRF193 200 nM) above 45.8 µM.

As to `CN(c1nccc(=O)[nH]1)C1CCN(c2nc3ccccc3n2Cc2ccc(F)cc2)CC1` [Mizolastine], the IC50 cell viability by setting is: (ICRF193 0 nM) above 45.8 µM; (ICRF193 200 nM) above 45.8 µM.

As for `NC(=O)c1ncn([C@@H]2O[C@H](CO)[C@@H](O)[C@H]2O)c1O` [Mizoribine], the IC50 cell viability (ICRF193 0 nM) was above 45.8 µM and the IC50 cell viability (ICRF193 200 nM) is above 45.8 µM.

Compound `O=C(NCCN1CCOCC1)c1ccc(Cl)cc1` [Moclobemide] yielded an IC50 cell viability (ICRF193 0 nM) above 45.8 µM and an IC50 cell viability (ICRF193 200 nM) above 45.8 µM.

For `CCOC(=O)[C@H](CCc1ccccc1)N[C@@H](C)C(=O)N1Cc2cc(OC)c(OC)cc2C[C@H]1C(=O)O` [Moexipril hydrochloride], the IC50 cell viability by setting is: (ICRF193 0 nM) above 45.8 µM; (ICRF193 200 nM) above 45.8 µM.

For the compound `COc1ccc(-c2noc(CC(=O)O)c2-c2ccc(OC)cc2)cc1` [Mofezolac], the IC50 cell viability reads like this: (ICRF193 0 nM) above 45.8 µM; (ICRF193 200 nM) above 45.8 µM.

On to `CCc1c(C)[nH]c2c1C(=O)C(CN1CCOCC1)CC2` (stereo unspecified) [Molindone hydrochloride], for which the IC50 cell viability by setting is: (ICRF193 0 nM) above 45.8 µM; (ICRF193 200 nM) above 45.8 µM.

On to `CCOC(=O)[N-]c1c[n+](N2CCOCC2)no1` [Molsidomine], for which the IC50 cell viability by setting is: (ICRF193 0 nM) above 45.8 µM; (ICRF193 200 nM) above 45.8 µM.

For `Oc1ccc(OCc2ccccc2)cc1` [Monobenzone], the IC50 cell viability reads like this: (ICRF193 0 nM) above 45.8 µM; (ICRF193 200 nM) above 45.8 µM.

`CC(C)(O)c1ccccc1CC[C@@H](SCC1(CC(=O)O)CC1)c1cccc(/C=C/c2ccc3ccc(Cl)cc3n2)c1` [Montelukast sodium]: the IC50 cell viability was above 45.8 µM (ICRF193 0 nM) and above 45.8 µM (ICRF193 200 nM).

Take `Cc1ccc(C2(O)CCN(CCCC(=O)c3ccc(F)cc3)CC2)cc1` [Moperone]: the IC50 cell viability runs as follows: (ICRF193 0 nM) above 45.8 µM; (ICRF193 200 nM) above 45.8 µM.

For `Cc1ccsc1/C=C/C1=NCCCN1C` [Morantel tartrate], the IC50 cell viability is, setting by setting: (ICRF193 0 nM) above 45.8 µM; (ICRF193 200 nM) above 45.8 µM.

`CCOC(=O)Nc1ccc2c(c1)N(C(=O)CCN1CCOCC1)c1ccccc1S2` [Moricizine hydrochloride]: the IC50 cell viability (ICRF193 0 nM) is above 45.8 µM and the IC50 cell viability (ICRF193 200 nM) is above 45.8 µM.

`CCOc1cc(N)c(Cl)cc1C(=O)NCC1CN(Cc2ccc(F)cc2)CCO1` (stereo unspecified) [Mosapride citrate] gave an IC50 cell viability (ICRF193 0 nM) above 45.8 µM and an IC50 cell viability (ICRF193 200 nM) above 45.8 µM.

As to `CO[C@@]1(NC(=O)C(C(=O)O)c2ccc(O)cc2)C(=O)N2C(C(=O)O)=C(CSc3nnnn3C)CO[C@@H]21` (stereo partly specified) [Moxalactam disodium], the IC50 cell viability by setting is: (ICRF193 0 nM) above 45.8 µM; (ICRF193 200 nM) above 45.8 µM.

`COc1c(N2C[C@@H]3CCCN[C@@H]3C2)c(F)cc2c(=O)c(C(=O)O)cn(C3CC3)c12` [Moxifloxacin (Hydrochloride)]: the IC50 cell viability was above 45.8 µM (ICRF193 0 nM) and above 45.8 µM (ICRF193 200 nM).

Regarding `CC(=O)Oc1cc(C(C)C)c(OCCN(C)C)cc1C` [Moxisylyte hydrochloride], the IC50 cell viability (ICRF193 0 nM) was above 45.8 µM and the IC50 cell viability (ICRF193 200 nM) is above 45.8 µM.

`COc1nc(C)nc(Cl)c1NC1=NCCN1` [Moxonidine hydrochloride hydrate] showed an IC50 cell viability (ICRF193 0 nM) above 45.8 µM and an IC50 cell viability (ICRF193 200 nM) above 45.8 µM.

For `O=C(O)[C@@H](O)[C@H](O)[C@H](O)[C@@H](O)C(=O)O` [Mucic acid], the IC50 cell viability reads like this: (ICRF193 0 nM) above 45.8 µM; (ICRF193 200 nM) above 45.8 µM.

As for `C/C(=C\C(=O)OCCCCCCCCC(=O)O)C[C@@H]1OC[C@H](C[C@@H]2O[C@H]2[C@@H](C)[C@H](C)O)[C@@H](O)[C@H]1O` [Mupirocin], the IC50 cell viability (ICRF193 0 nM) was above 45.8 µM and the IC50 cell viability (ICRF193 200 nM) is above 45.8 µM.

In the case of `Cl.Cl.c1ccc(CNCCNCc2ccccc2)cc1` [N,N'-Dibenzylethane-1,2-diamine dihydrochloride], the IC50 cell viability was above 45.8 µM (ICRF193 0 nM) and above 45.8 µM (ICRF193 200 nM).

As for `C[N+](C)(C)CCCCCC[N+](C)(C)C` [N,N,N,N',N',N'-Hexamethylhexane-1,6-diaminium], the IC50 cell viability runs as follows: (ICRF193 0 nM) above 45.8 µM; (ICRF193 200 nM) above 45.8 µM.

Turning to `CN(C)CC(=O)O` [N,N-DIMETHYLGLYCINE HYDROCHLORIDE], the IC50 cell viability is above 45.8 µM (ICRF193 0 nM) and above 45.8 µM (ICRF193 200 nM).

With `CN(C)Cc1ccccc1` [N,N-Dimethylbenzylamine], the IC50 cell viability was above 45.8 µM (ICRF193 0 nM) and above 45.8 µM (ICRF193 200 nM).

Regarding `CC(=O)Nc1ccc(S(=O)(=O)Nc2cc(C)on2)cc1` [N-Acetyl sulfamethoxazole], the IC50 cell viability (ICRF193 0 nM) is above 45.8 µM and the IC50 cell viability (ICRF193 200 nM) was above 45.8 µM.

Take `CC(=O)N[C@@H](Cc1ccc(O)cc1)C(=O)O` [N-Acetyl-L-tyrosine]: the IC50 cell viability runs as follows: (ICRF193 0 nM) above 45.8 µM; (ICRF193 200 nM) above 45.8 µM.

On to `c1ccc2sc(SNC3CCCCC3)nc2c1` [N-Cyclohexyl-2-benzothiazolesulfenamide], for which the IC50 cell viability is above 45.8 µM (ICRF193 0 nM) and above 45.8 µM (ICRF193 200 nM).

`O=C1CCC(=O)N1CO` [N-Hydroxymethylsuccinimide]: the IC50 cell viability is above 45.8 µM (ICRF193 0 nM) and above 45.8 µM (ICRF193 200 nM).

Consider `CC([C@H](O)c1ccccc1)N(C)C` (stereo partly drawn) [N-METHYL (-)EPHEDRINE [1R,2S]], for which the IC50 cell viability by setting is: (ICRF193 0 nM) above 45.8 µM; (ICRF193 200 nM) above 45.8 µM.

Regarding `c1ccc2sc(SN3CCOCC3)nc2c1` [N-Oxydiethylenebenzothiazole-2-sulfenamide], the IC50 cell viability was above 45.8 µM (ICRF193 0 nM) and above 45.8 µM (ICRF193 200 nM).

On to `NC(=O)c1ccc[n+]([C@@H]2O[C@H](COP(=O)([O-])OP(=O)(O)OC[C@H]3O[C@@H](n4cnc5c(N)ncnc54)[C@H](O)[C@@H]3O)[C@@H](O)[C@H]2O)c1` [NAD+], for which the IC50 cell viability was above 45.8 µM (ICRF193 0 nM) and above 45.8 µM (ICRF193 200 nM).

As to `c1ccc2ccccc2c1` [NAPHTHALENE, ZONE REFINED], the IC50 cell viability was above 45.8 µM (ICRF193 0 nM) and above 45.8 µM (ICRF193 200 nM).

Turning to `C#C[C@]1(OC(C)=O)CC[C@H]2[C@@H]3CCC4=CC(=O)CC[C@@H]4[C@H]3CC[C@@]21C` [NORETHINDRONE ACETATE], the IC50 cell viability reads like this: (ICRF193 0 nM) above 45.8 µM; (ICRF193 200 nM) above 45.8 µM.

In the case of `C#C[C@]1(O)CC[C@H]2[C@@H]3CCC4=C(CCC(=O)C4)[C@H]3CC[C@@]21C` [NORETHYNODREL], the IC50 cell viability was above 45.8 µM (ICRF193 0 nM) and above 45.8 µM (ICRF193 200 nM).

`CC(C)N(CCCCOCC(=O)NS(C)(=O)=O)c1cnc(-c2ccccc2)c(-c2ccccc2)n1` [NS-304]: the IC50 cell viability by setting is: (ICRF193 0 nM) above 45.8 µM; (ICRF193 200 nM) above 45.8 µM.

Take `CC1C=CC=CCCC=CC=CC=CC=CC(OC2OC(C)C(O)C(N)C2O)CC2OC(O)(CC(O)C(O)CCC(O)CC(O)CC(O)CC(=O)OC(C)C(C)C1O)CC(O)C2C(=O)O` (stereo unspecified) [NYSTATIN]: the IC50 cell viability is, setting by setting: (ICRF193 0 nM) above 45.8 µM; (ICRF193 200 nM) above 45.8 µM.

Take `COc1ccc2cc(CCC(C)=O)ccc2c1` [Nabumetone]: the IC50 cell viability was above 45.8 µM (ICRF193 0 nM) and above 45.8 µM (ICRF193 200 nM).

Take `CC1CCc2c(N3CCC(O)CC3)c(F)cc3c(=O)c(C(=O)O)cn1c23` (stereo unspecified) [Nadifloxacin]: the IC50 cell viability by setting is: (ICRF193 0 nM) above 45.8 µM; (ICRF193 200 nM) above 45.8 µM.

With `CC(C)(C)NCC(O)COc1cccc2c1CC(O)C(O)C2` (stereo unspecified) [Nadolol], the IC50 cell viability by setting is: (ICRF193 0 nM) above 45.8 µM; (ICRF193 200 nM) above 45.8 µM.

As for `N=C(N)Nc1ccc(C(=O)Oc2ccc3cc(C(=N)N)ccc3c2)cc1` [Nafamostat mesilate], the IC50 cell viability was above 45.8 µM (ICRF193 0 nM) and above 45.8 µM (ICRF193 200 nM).

With `CCOc1ccc2ccccc2c1C(=O)N[C@@H]1C(=O)N2[C@@H]1SC(C)(C)[C@@H]2C(=O)O` [Nafcillin sodium monohydrate], the IC50 cell viability (ICRF193 0 nM) was above 45.8 µM and the IC50 cell viability (ICRF193 200 nM) is above 45.8 µM.

For `CCN(CC)CCOC(=O)C(Cc1cccc2ccccc12)CC1CCCO1` (stereo unspecified) [Nafronyl oxalate], the IC50 cell viability is above 45.8 µM (ICRF193 0 nM) and above 45.8 µM (ICRF193 200 nM).

Consider `Oc1ccc2c3c1O[C@H]1[C@@H](O)CC[C@@]4(O)[C@@H](C2)N(CC2CCC2)CC[C@]314` [Nalbuphine hydrochloride], for which the IC50 cell viability runs as follows: (ICRF193 0 nM) above 45.8 µM; (ICRF193 200 nM) above 45.8 µM.

On to `CN(C(=O)/C=C/c1ccoc1)[C@@H]1CC[C@@]2(O)[C@H]3Cc4ccc(O)c5c4[C@@]2(CCN3CC2CC2)[C@H]1O5` [Nalfurafine hydrochloride], for which the IC50 cell viability is above 45.8 µM (ICRF193 0 nM) and above 45.8 µM (ICRF193 200 nM).

Regarding `CCn1cc(C(=O)O)c(=O)c2ccc(C)nc21` [Nalidixic acid], the IC50 cell viability reads like this: (ICRF193 0 nM) above 45.8 µM; (ICRF193 200 nM) above 45.8 µM.

For `C=C1CC[C@@]2(O)[C@H]3Cc4ccc(O)c5c4[C@@]2(CCN3CC2CC2)[C@H]1O5` [Nalmefene], the IC50 cell viability reads like this: (ICRF193 0 nM) above 45.8 µM; (ICRF193 200 nM) above 45.8 µM.

For `C=CCN1CC[C@]23c4c5ccc(O)c4O[C@H]2[C@@H](OCCOCCOCCOCCOCCOCCOCCOC)CC[C@@]3(O)[C@H]1C5` [Naloxegol (oxalate)], the IC50 cell viability runs as follows: (ICRF193 0 nM) above 45.8 µM; (ICRF193 200 nM) above 45.8 µM.

Take `C=CCN1CC[C@]23c4c5ccc(O)c4O[C@H]2C(=O)CC[C@@]3(O)[C@H]1C5` [Naloxone]: the IC50 cell viability is, setting by setting: (ICRF193 0 nM) above 45.8 µM; (ICRF193 200 nM) above 45.8 µM.
